This passage reports logP results from the SangsterLogP compilation.

The term logP denotes a log measure of how a compound divides between an organic and an aqueous phase. Low readings indicate lower lipophilicity, high ones higher lipophilicity.

As for `O=C1c2c(O)cccc2C(C(=O)CCc2ccccc2)c2cccc(O)c21`, the logP came out at 4.63.
For the compound `O=C1c2c(O)cccc2C(C(=O)Cc2cc(OCc3ccccc3)c(OCc3ccccc3)c(OCc3ccccc3)c2)c2cccc(O)c21`, the log partition coefficient (logP) is 6.11.
`O=C1c2c(O)cccc2C(C(=O)Cc2ccc(O)cc2)c2cccc(O)c21` yielded a log partition coefficient (logP) of 3.38.
`O=C1c2c(O)cccc2C(=Cc2cc(O)c(O)c(O)c2)c2cccc(O)c21` registered a logP of 3.32.
`Cc1ccc(C=C2c3cccc(O)c3C(=O)c3c(O)cccc32)cc1` gave a logP of 5.83.
For `COc1ccc(CCC(=O)C2c3cccc(O)c3C(=O)c3c(O)cccc32)cc1OC`, the logP was found to be 4.21.
For `O=C1c2c(O)cccc2C(C(=O)CCc2ccc(OCc3ccccc3)cc2)c2cccc(O)c21`, the logP came to 5.63.
`O=C1c2c(O)cccc2C(C(=O)Cc2ccc(O)c(O)c2)c2cccc(O)c21` came in with a logP of 3.
Regarding `O=C1c2c(O)cccc2C(C(=O)Cc2ccc(OCc3ccccc3)c(OCc3ccccc3)c2)c2cccc(O)c21`, the logP was 5.43.
As for `COc1ccc(C=C2c3cccc(O)c3C(=O)c3c(O)cccc32)cc1OC`, the figure is 5.05.
Regarding `O=C1c2c(O)cccc2C(C(=O)CCc2ccc(O)cc2)c2cccc(O)c21`, the logP amounted to 3.73.
`CC(C)(C)c1cc(CC(=O)C2c3cccc(O)c3C(=O)c3c(O)cccc32)cc(C(C)(C)C)c1O` gave a logP of 5.33.
As for `O=C1c2c(O)cccc2C(C(=O)/C=C/c2ccc([N+](=O)[O-])cc2)c2cccc(O)c21`, the figure is 4.23.
As for `O=C(O)c1ccc(C=C2c3cccc(O)c3C(=O)c3c(O)cccc32)cc1`, the figure is 4.4; as for `COc1ccc(CCC(=O)C2c3cccc(O)c3C(=O)c3c(O)cccc32)cc1`, 4.72.
As for `O=C1c2c(O)cccc2C(=Cc2ccc(C(F)(F)F)cc2)c2cccc(O)c21`, the figure is 5.48; as for `N#Cc1ccc(C=C2c3cccc(O)c3C(=O)c3c(O)cccc32)cc1`, 4.58; as for `O=C1c2c(O)cccc2C(=Cc2ccc([N+](=O)[O-])cc2)c2cccc(O)c21`, 4.96.
`O=C1c2c(O)cccc2C(=Cc2ccc(O)cc2)c2cccc(O)c21` gave a logP of 4.52.
`O=C1c2c(O)cccc2C(C(=O)/C=C/c2ccccc2)c2cccc(O)c21` came in with a logP of 4.6. This logP and that of the compound before are within 0.2 log units of each other.
In the case of `O=C1c2c(O)cccc2C(C(=O)Cc2ccc([N+](=O)[O-])cc2)c2cccc(O)c21` it was 3.96.
In the case of `COc1ccc(CC(=O)C2c3cccc(O)c3C(=O)c3c(O)cccc32)cc1` it was 4.2.
As for `O=C1c2c(O)cccc2C(C(=O)CCCc2ccccc2)c2cccc(O)c21`, the figure is 4.74; as for `O=C1c2c(O)cccc2C(=CCCc2ccccc2)c2cccc(O)c21`, 5.67.
With `O=C1c2c(O)cccc2C(C(=O)Cc2ccc(OCc3ccccc3)cc2)c2cccc(O)c21`, the logP is 5.01.
As for `COC(=O)c1ccc(C=C2c3cccc(O)c3C(=O)c3c(O)cccc32)cc1`, the figure is 5.35.
As for `COc1ccc(C=C2c3cccc(O)c3C(=O)c3c(O)cccc32)cc1`, the figure is 5.53; as for `O=C1c2c(O)cccc2C(C(=O)Cc2ccccc2)c2cccc(O)c21`, 4.24; as for `O=C1c2c(O)cccc2C(C(=O)Cc2cc(O)c(O)c(O)c2)c2cccc(O)c21`, 2.61.
As for `COc1cccc(C=CC(=O)C2c3cccc(O)c3C(=O)c3c(O)cccc32)c1`, the figure is 4.68.
